Data taken from US11787769B2 (priority 2019, dated 2023).
Like-named read-outs stand apart in the source and are kept apart here.

Legend:
Assay in all cases: microbe, parasite or virus in culture
[1] = test system: influenza A virus (HA of H5N1, Goose/Qinghai/59/05); assay type: cell-based; conditions: for inhibition at 12.5 µM: H5N1, A549, 12.5 μM, read-out: H5N1 pseudotype assay % inhibition at 12.5 μM
[2] = test system: PR8-PB2-Gluc, influenza A/Puerto Rico/8/1934 (PR8) H1N1 virus; assay type: cell-based; conditions: read-out: EC50 (nM), antiviral activity in the infectious IAV
PR8-NS1-Gluc virus = assay type: cell-based, influenza A PR8
[3] = Influenza A virus, H5N1, A549, read-out: H5N1 pseudotype assay EC50 (μM)
[4] = read-out: H5N1 pseudotype assay EC50
[5] = Influenza A virus, PR8, MDCK, 48 h

Structure (SMILES) | inhibition at 12.5 µM ([1]; Influenza A virus) [%] | EC50 ([2]; Influenza A virus, MDCK) [nM] | other results
CC(C)N1CCN(C(=O)c2c(Cl)cccc2Cl)CC1 [Compound 25, (2,6-Dichlorophenyl)-(4-isopropylpiperazin-l-yl)methanone] |  |  | H5N1 pseudotype assay % inhibition at 12.5 μM [1]: 4%
CC(C)N1CCC(NC(=O)c2ncccc2Cl)CC1 [Compound 8, 3-Chloro-N-(1-isopropylpiperidin-4-yl)picolinamide] | 40 |  | 
CC(C)N1CCC(NC(=O)c2ccc([N+](=O)[O-])cc2Cl)CC1 [Compound 4, 2-Chloro-N-(1-isopropylpiperidin-4-yl)-4-nitrobenzamide] | 97 | 211 ± 43 | EC50 [1, 3]: 0.72 ± 0.09 µM
O=C(NC1CCN(C2CC2)CC1)c1c(Cl)cccc1Cl [Compound 11, 2,6-Dichloro-N-(1-cyclopropylpiperidin-4-yl)benzamide] | 33 |  | 
CC(C)N1CCC(NS(=O)(=O)c2ccc(Cl)cc2Cl)CC1 [Compound 19, 2,4-Dichloro-N-(1-isopropylpiperidin-4-yl)benzenesulfonamide] | 1 |  | 
CC(C)N1CCC(NC(=O)c2c(Cl)cccc2Cl)C(F)(F)C1 (centres unmarked) [Compound 30, 2,6-Dichloro-N-(3,3-difluoro-1-isopropylpiperidin-4-yl)benzamide] | 77 |  | 
CC(C)N1CC[C@@H](NC(=O)c2ccc(C(F)(F)F)cc2Cl)[C@H](F)C1 [Compound 33, 2-Chloro-N-((3R,4R)-3-fluoro-1-isopropylpiperidin-4-yl)-4-(trifluoromethyl)benzamide] | 87 | 989 ± 323 | EC50 [1, 3]: 2.93 ± 0.3 µM
O=C(NC1CCN(C2CCC2)CC1)c1c(Cl)cccc1Cl [Compound 12, 2,6-Dichloro-N-(1-cyclobutylpiperidin-4-yl)benzamide] | 76 |  | 
CC(C)N1CC[C@H](NC(=O)c2ccc(C(F)(F)F)cc2Cl)[C@@H](F)C1 [Compound 31, 2-Chloro-N-((3S,45)-3-fluoro-1-isopropylpiperidin-4-yl)-4-(trifluoromethyl)benzamide] |  |  | H5N1 pseudotype assay % inhibition at 12.5 μM ([1]; 12.5 μM): 93%; EC50 [1, 4]: 1.16 ± 0.67 µM; EC50 [2]: 324 ± 105 nM
CCC(CC)O[C@@H]1C=C(C(=O)O)C[C@H](N)[C@H]1NC(C)=O [Oseltamivir carboxylate, reference compound] |  | 181 ± 69 | EC30 (PR8-NS1-Gluc virus): 160 nM; EC40 (PR8-NS1-Gluc virus): 229 nM; EC60 (PR8-NS1-Gluc virus): 441 nM; EC70 (PR8-NS1-Gluc virus): 629 nM; EC80 (PR8-NS1-Gluc virus): 972 nM; EC50 (PR8-NS1-Gluc virus; [5]): 318 nM; EC90 (PR8-NS1-Gluc virus; [5]): 1870 nM
CC(C)N1CC[C@H](NC(=O)c2c(Cl)cccc2Cl)[C@@H](F)C1 [Compound 29, 2,6-Dichloro-N-((3S,45)-3-fluoro-1-isopropylpiperidin-4-yl)benzamide] |  |  | H5N1 pseudotype assay % inhibition at 12.5 μM ([1]; 12.5 μM): 87%; EC50 [1, 4]: 1.81 ± 0.45 µM; EC50 [2]: 885 ± 50 nM
CC(C)N1CCC(NC(=O)c2c(Cl)cccc2Cl)CC1 [Compound 1, 2,6-Dichloro-N-(1-isopropylpiperidin-4-yl)benzamide] | 90 | 272 ± 37 | EC50 [1, 3]: 3.04 ± 1.13 µM
CC(C)N1CCC(NC(=O)c2ccc(C(F)(F)F)cc2Cl)CC1 [Compound 5, 2-Chloro-N-(1-isopropylpiperidin-4-yl)-4-(trifluoromethyl)benzamide] | 99 | 380 ± 182 | EC50 [1, 3]: 0.36 ± 0.05 µM
CC(C)N1CCC(N(C)C(=O)c2c(Cl)cccc2Cl)CC1 [Compound 9, 2,6-Dichloro-N-(1-isopropylpiperidin-4-yl)-N-methylbenzamide] | 91 | 724 ± 36 | EC50 [1, 3]: 4.45 µM
O=C(NC1CCN(C2CCCCC2)CC1)c1ccc(C(F)(F)F)cc1Cl [Compound 18, 2-Chloro-N-(1-cyclohexylpiperidin-4-yl)-4-(trifluoromethyl)benzamide] | 98 | 505 ± 174 | EC50 [1, 3]: 0.91 ± 0.25 µM
CC(C)N1CC[C@H](NC(=O)c2ccc(C(F)(F)F)cc2Cl)[C@H](F)C1 [Compound 32, 2-Chloro-N-((3R,45)-3-fluoro-1-isopropylpiperidin-4-yl)-4-(trifluoromethyl)benzamide] |  |  | H5N1 pseudotype assay % inhibition at 12.5 μM ([1]; 12.5 μM): 99%; EC50 [1, 4]: 0.63 ± 0.48 µM; EC50 [2]: 263 ± 33 nM
CC(C)N1CCC(NC(=O)c2ccccc2C(F)(F)F)CC1 [Compound 3, N-(1-Isopropylpiperidin-4-yl)-2-(trifluoromethyl)benzamide] | 31 |  | 

Structure (SMILES) | inhibition at 12.5 µM ([1]; Influenza A virus) [%] | EC50 ([2]; Influenza A virus, MDCK) [nM] | other results
CC(C)N1CCCC(NC(=O)c2c(Cl)cccc2Cl)C1 (centres unmarked) [Compound 20, 2,6-Dichloro-N-(1-isopropylpiperidin-3-yl)benzamide] | 14 |  | 
CC(C)N1CCC(NC(=O)c2c(Cl)cccc2C(F)(F)F)CC1 [Compound 2, 2-Chloro-N-(1-isopropylpiperidin-4-yl)-6-(trifluoromethyl)benzamide] | 85 | 587 ± 140 | EC50 [1, 3]: 5.62 ± 2.16 µM
CC(C)N1CC[C@@H](NC(=O)c2ccc(C(F)(F)F)cc2Cl)[C@@H](F)C1 [Compound 34, 2-Chloro-N-((3S,4R)-3-fluoro-1-isopropylpiperidin-4-yl)-4-(trifluoromethyl)benzamide] | 99 | 195 ± 49 | EC50 [1, 3]: 0.67 ± 0.2 µM
CC(C)N1CCC(NC(=O)c2c(Cl)cccc2Cl)C1 (centres unmarked) [Compound 22, 2,6-Dichloro-N-(1-isopropylpyrrolidin-3-yl)benzamide] | 11 |  | 
CC(C)N1CCCC(NC(=O)c2c(Cl)cccc2Cl)CC1 (centres unmarked) [Compound 23, 2,6-Dichloro-N-(1-isopropylazepan-4-yl)benzamide] | 71 |  | 
CC(C)N1CCC(CNC(=O)c2c(Cl)cccc2Cl)CC1 [Compound 21, 2,6-Dichloro-N-((1-isopropylpiperidin-4-yl)methyl)benzamide] | 23 |  | 
CC(C)CN1CCC(NC(=O)c2c(Cl)cccc2Cl)CC1 [Compound 14, 2,6-Dichloro-N-(1-isobutylpiperidin-4-yl)benzamide] | 89 | 852 ± 79 | EC50 [1, 3]: 2.15 ± 0.64 µM
CC(C)(C)N1CCC(NC(=O)c2c(Cl)cccc2Cl)CC1 [Compound 13, N-(1-(tert-Butyl)piperidin-4-yl)-2,6-dichlorobenzamide] | 99 | 113 ± 18 | EC50 [1, 3]: 0.51 ± 0.04 µM
CC(C)N1CC2C(C1)C2NC(=O)c1c(Cl)cccc1Cl (centres unmarked) [Compound 24, 2,6-Dichloro-N-(3-isopropyl-3-azabicyclo[3. 1.0]hexan-6-yl)benzamide] | 61 |  | 
CC(C)N1CCC(NC(=O)c2ncc(Cl)cc2Cl)CC1 [Compound 6, 3,5-Dichloro-N-(1-isopropylpiperidin-4-yl)picolinamide] | 39 |  | 
CC(C)CN1CCC(NC(=O)c2ccc(C(F)(F)F)cc2Cl)CC1 [Compound 17, 2-Chloro-N-(1-isobutylpiperidin-4-yl)-4-(trifluoromethyl)benzamide] | 73 |  | 
CC(C)N1CCC(NC(=O)c2ncc(C(F)(F)F)cc2Cl)CC1 [Compound 7, 3-Chloro-N-(1-isopropylpiperidin-4-yl)-5-(trifluoromethyl)picolinamide] | 76 |  | 
CC(C)N1CCC(N(Cc2ccccc2)C(=O)c2c(Cl)cccc2Cl)CC1 [Compound 10, N-Benzyl-2,6-dichloro-N-(1-isopropylpiperidin-4-yl)benzamide] | 67 |  | H5N1 pseudotype assay % inhibition at 12.5 μM ([1]; 12.5 μM): 64%
CC(C)N1CCC(C)(NC(=O)c2c(Cl)cccc2Cl)CC1 [Compound 27, 2,6-Dichloro-N-(1-isopropyl-4-methylpiperidin-4-yl)benzamide] | 75 |  | 
O=C(NC1CCN(C2COC2)CC1)c1c(Cl)cccc1Cl [Compound 15, 2,6-Dichloro-N-(1-(oxetan-3-yl)piperidin-4-yl)benzamide] | 7 |  | 
CC(C)N1CCC2(CC1)OCCN2C(=O)c1c(Cl)cccc1Cl [Compound 26, (2,6-Dichlorophenyl)-(8-isopropyl-1-oxa-4,8-diazaspiro[4.5]decan-4-yl)methanone] | 19 |  | 
CO[C@H]1CN(C(C)C)CC[C@H]1NC(=O)c1c(Cl)cccc1Cl [Compound 28, 2,6-Dichloro-N-((3S,4R)-1-isopropyl-3-methoxypiperidin-4-yl)benzamide] | 64 |  | 
